Molecular target: PDE10A (Homo sapiens (Human), UniProt Q9Y233)
Settings: read-out: Inhibition of PDE10A, IC50
Experimental: Inhibition of Recombinant PDE10A (Expressed in Baculovirus/SF21 Cells)
PDE activity was determined in a one step procedure in microtiter plates. The reaction mixture of 100 μl contained 50 mM Tris-HCl/5 mM MgCl2 buffer (pH=7.4, Sigma, Deisenhofen, Germany; Merck, Darmstadt, Germany) 0.1 μM [3H]-cAMP (PerkinElmer, Shelton, USA) and the enzyme. Non-specific enzyme activity was determined without the enzyme.
The reaction was initiated by addition of the substrate solution and was carried out at 37° C. for 30 minutes. Enzymatic activity then was stopped by addition of 25 μl Ysi-SPA-beads (PerkinElmer, Shelton, USA). One h later the mixture was measured in a liquid scintillation counter for microtiter plates (Microbeta Trilux). The Biomek 2000 (Beckman) was used routinely for pipetting of the incubation mixture. […] For determination of IC50 values the Hill-plot, 2-parameter-model, was used.

Sequence of PDE10A (Q9Y233 other isoform, or with tags, fused parts or gaps): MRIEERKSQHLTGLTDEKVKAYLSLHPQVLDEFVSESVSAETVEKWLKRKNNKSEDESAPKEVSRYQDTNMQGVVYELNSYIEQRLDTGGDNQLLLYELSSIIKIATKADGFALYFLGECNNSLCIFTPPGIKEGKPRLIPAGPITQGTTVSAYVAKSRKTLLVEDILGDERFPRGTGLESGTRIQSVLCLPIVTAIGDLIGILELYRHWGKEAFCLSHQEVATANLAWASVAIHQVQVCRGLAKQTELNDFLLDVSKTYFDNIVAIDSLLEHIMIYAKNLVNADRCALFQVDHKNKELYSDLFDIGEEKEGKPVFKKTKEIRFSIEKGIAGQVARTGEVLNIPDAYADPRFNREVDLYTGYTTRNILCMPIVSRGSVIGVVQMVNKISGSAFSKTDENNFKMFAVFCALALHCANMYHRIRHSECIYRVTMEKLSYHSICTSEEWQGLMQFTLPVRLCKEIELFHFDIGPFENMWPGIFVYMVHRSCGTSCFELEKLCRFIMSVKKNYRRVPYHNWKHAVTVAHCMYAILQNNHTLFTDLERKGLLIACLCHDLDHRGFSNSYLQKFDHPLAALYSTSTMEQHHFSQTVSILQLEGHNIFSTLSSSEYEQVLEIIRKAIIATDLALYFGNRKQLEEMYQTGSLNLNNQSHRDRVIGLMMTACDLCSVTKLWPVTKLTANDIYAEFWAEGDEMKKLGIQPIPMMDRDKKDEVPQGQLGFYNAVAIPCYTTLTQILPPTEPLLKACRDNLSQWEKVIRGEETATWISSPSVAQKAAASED

For `Cc1nc2ccc(Cl)cc2n2c(-c3ccccc3Cl)nnc12` [Example 1, 8-Chloro-1-(2-chloro-phenyl)-4-methyl-[1,2,4]triazolo[4,3-a]quinoxaline], the IC50 was 45 nM.
With `Cc1nc2ccc(Cl)cc2n2c(-c3ccccc3F)nnc12` [Example 2, 8-Chloro-1-(2-fluoro-phenyl)-4-methyl-[1,2,4]triazolo[4,3-a]quinoxaline] the IC50 was 214 nM.
`Cc1ncccc1-c1nnc2c(C)nc3ccc(Cl)cc3n12` [Example 5, 8-Chloro-4-methyl-1-(2-methyl-pyridin-3-yl)-[1,2,4]triazolo[4,3-a]quinoxaline] showed an IC50 of 383 nM.
`Cc1nc2ccc(Cl)cc2n2c(-c3cc(Cl)ccc3Cl)nnc12` [Example 6, 8-Chloro-1-(2,5-dichloro-phenyl)-4-methyl-[1,2,4]triazolo[4,3-a]quinoxaline] gave an IC50 of 131 nM.
For `COc1ccc(Cl)c(-c2nnc3c(C)nc4ccc(Cl)cc4n23)c1` [Example 7, 8-Chloro-1-(2-chloro-5-methoxy-phenyl)-4-methyl-[1,2,4]triazolo[4,3-a]quinoxaline], the IC50 was 104 nM.
Compound `Cc1cnccc1-c1nnc2c(C)nc3ccc(Cl)cc3n12` [Example 9, 8-Chloro-4-methyl-1-(3-methyl-pyridin-4-yl)-[1,2,4]triazolo[4,3-a]quinoxaline] has an IC50 of 736 nM.
With `Cc1nc2ccc(Cl)cc2n2c(-c3cc(C(F)(F)F)ccc3Cl)nnc12` [Example 10, 8-Chloro-1-(2-chloro-5-trifluoromethyl-phenyl)-4-methyl-[1,2,4]triazolo[4,3-a]quinoxaline] the IC50 was over 1000 nM.
In the case of `CCCCOc1ccc(F)c(-c2nnc3c(C)nc4ccc(Cl)cc4n23)c1` [Example 11, 1-(5-Butoxy-2-fluoro-phenyl)-8-chloro-4-methyl-[1,2,4]triazolo[4,3-a]quinoxaline], the IC50 is reported as over 1000 nM.
`CCCCOc1ccc(Cl)c(-c2nnc3c(C)nc4ccc(Cl)cc4n23)c1` [Example 12, 1-(5-Butoxy-2-chloro-phenyl)-8-chloro-4-methyl-[1,2,4]triazolo[4,3-a]quinoxaline] was tested, and the IC50 was over 1000 nM.
`CCCCCCOc1ccc(C)c(-c2nnc3c(C)nc4ccc(Cl)cc4n23)c1` [Example 15, 8-Chloro-1-(5-hexyloxy-2-methyl-phenyl)-4-methyl-[1,2,4]triazolo[4,3-a]quinoxaline] showed an IC50 of over 1000 nM.
`Cc1nc2ccc(Cl)cc2n2c(-c3cc(OCCCC(F)(F)F)ccc3Cl)nnc12` [Example 16, 8-Chloro-1-[2-chloro-5-(4,4,4-trifluoro-butoxy)-phenyl]-4-methyl-[1,2,4]triazolo[4,3-a]quinoxaline] gave an IC50 of over 1000 nM.
`Cc1nc2ccc(Cl)cc2n2c(-c3cc(OCCCCF)ccc3F)nnc12` [Example 17, 8-Chloro-1-[2-fluoro-5-(4-fluoro-butoxy)-phenyl]-4-methyl-[1,2,4]triazolo[4,3-a]quinoxaline] was tested, and the IC50 was over 1000 nM.
`Cc1nc2cc(Cl)ccc2n2c(-c3c(F)cccc3F)nnc12` [Example 18, 7-Chloro-1-(2,6-difluoro-phenyl)-4-methyl-[1,2,4]triazolo[4,3-a]quinoxaline] gave an IC50 of 103 nM.
`Cc1nc2cc(Cl)ccc2n2c(-c3cc(Cl)ccc3Cl)nnc12` [Example 19, 7-Chloro-1-(2,5-dichloro-phenyl)-4-methyl-[1,2,4]triazolo[4,3-a]quinoxaline] gave an IC50 of over 1000 nM.
`Cc1nc2cc(Cl)ccc2n2c(-c3cc(C(F)(F)F)ccc3Cl)nnc12` [Example 21, 7-Chloro-1-(2-chloro-5-trifluoromethyl-phenyl)-4-methyl-[1,2,4]triazolo[4,3-a]quinoxaline] gave an IC50 of over 1000 nM.
For `CCCCOc1ccc(F)c(-c2nnc3c(C)nc4cc(Cl)ccc4n23)c1` [Example 22, 1-(5-Butoxy-2-fluoro-phenyl)-7-chloro-4-methyl-[1,2,4]triazolo[4,3-a]quinoxaline], the IC50 was over 1000 nM.
In the case of `CCCCOc1ccc(Cl)c(-c2nnc3c(C)nc4cc(Cl)ccc4n23)c1` [Example 23, 1-(5-Butoxy-2-chloro-phenyl)-7-chloro-4-methyl-[1,2,4]triazolo[4,3-a]quinoxaline], the IC50 is reported as over 1000 nM.
`CCCCCCOc1ccc(F)c(-c2nnc3c(C)nc4cc(Cl)ccc4n23)c1` [Example 24, 7-Chloro-1-(2-fluoro-5-hexyloxy-phenyl)-4-methyl-[1,2,4]triazolo[4,3-a]quinoxaline] showed an IC50 of over 1000 nM.
For `CCCCOc1ccc(C)c(-c2nnc3c(C)nc4cc(Cl)ccc4n23)c1` [Example 25, 1-(5-Butoxy-2-methyl-phenyl)-7-chloro-4-methyl-[1,2,4]triazolo[4,3-a]quinoxaline], the IC50 was over 1000 nM.
`CCCCCCOc1ccc(C)c(-c2nnc3c(C)nc4cc(Cl)ccc4n23)c1` [Example 26, 7-Chloro-1-(5-hexyloxy-2-methyl-phenyl)-4-methyl-[1,2,4]triazolo[4,3-a]quinoxaline] was tested, and the IC50 was over 1000 nM.
With `Cc1nc2ccccc2n2c(-c3ccccc3F)nnc12` [Example 30, 1-(2-Fluoro-phenyl)-4-methyl-[1,2,4]triazolo[4,3-a]quinoxaline] the IC50 was 346 nM.
Compound `Cc1nc2ccccc2n2c(-c3cc(Cl)ccc3Cl)nnc12` [Example 34, 1-(2,5-Dichloro-phenyl)-4-methyl-[1,2,4]triazolo[4,3-a]quinoxaline] has an IC50 of 330 nM.
In the case of `Cc1nc2ccccc2n2c(-c3cccc(Cl)c3Cl)nnc12` [Example 35, 1-(2,3-Dichloro-phenyl)-4-methyl-[1,2,4]triazolo[4,3-a]quinoxaline], the IC50 is reported as 360 nM.
For `Cc1nc2ccccc2n2c(-c3cc(OCC4CCC4)ccc3Cl)nnc12` [Example 47, 1-(2-Chloro-5-cyclobutylmethoxy-phenyl)-4-methyl-[1,2,4]triazolo[4,3-a]quinoxaline], the IC50 was over 1000 nM.
`Cc1nc2ccccc2n2c(-c3cc(OCC4CC4)ccc3Cl)nnc12` [Example 48, 1-(2-Chloro-5-cyclopropylmethoxy-phenyl)-4-methyl-[1,2,4]triazolo[4,3-a]quinoxaline] showed an IC50 of over 1000 nM.
With `Cc1nc2ccccc2n2c(-c3cc(OCCc4ccccc4)ccc3Cl)nnc12` [Example 49, 1-(2-Chloro-5-phenethyloxy-phenyl)-4-methyl-[1,2,4]triazolo[4,3-a]quinoxaline] the IC50 was over 1000 nM.
`Cc1nc2ccccc2n2c(-c3cc(O)ccc3Cl)nnc12` [Example 50, 4-Chloro-3-(4-methyl-[1,2,4]triazolo[4,3-a]quinoxalin-1-yl)-phenol] showed an IC50 of 62 nM.
In the case of `Cc1nc2ccc(F)cc2n2c(-c3ccccc3F)nnc12` [Example 52, 8-Fluoro-1-(2-fluoro-phenyl)-4-methyl-[1,2,4]triazolo[4,3-a]quinoxaline], the IC50 is reported as 553 nM.
Compound `Cc1ncccc1-c1nnc2c(C)nc3ccc(F)cc3n12` [Example 53, 8-Fluoro-4-methyl-1-(2-methyl-pyridin-3-yl)-[1,2,4]triazolo[4,3-a]quinoxaline] has an IC50 of 1000 nM.
Work on `COc1ccc(Cl)c(-c2nnc3c(C)nc4ccc(F)cc4n23)c1` [Example 56, 1-(2-Chloro-5-methoxy-phenyl)-8-fluoro-4-methyl-[1,2,4]triazolo[4,3-a]quinoxaline] yielded an IC50 of 279 nM.
`Cc1nc2ccc(F)cc2n2c(-c3cc(C(F)(F)F)ccc3Cl)nnc12` [Example 57, 1-(2-Chloro-5-trifluoromethyl-phenyl)-8-fluoro-4-methyl-[1,2,4]triazolo[4,3-a]quinoxaline] was tested, and the IC50 was over 1000 nM.
Work on `CCCCOc1ccc(F)c(-c2nnc3c(C)nc4ccc(F)cc4n23)c1` [Example 58, 1-(5-Butoxy-2-fluoro-phenyl)-8-fluoro-4-methyl-[1,2,4]triazolo[4,3-a]quinoxaline] yielded an IC50 of over 1000 nM.
In the case of `CCCCOc1ccc(Cl)c(-c2nnc3c(C)nc4ccc(F)cc4n23)c1` [Example 59, 1-(5-Butoxy-2-chloro-phenyl)-8-fluoro-4-methyl-[1,2,4]triazolo[4,3-a]quinoxaline], the IC50 is reported as over 1000 nM.
For `CCCCCCOc1ccc(F)c(-c2nnc3c(C)nc4ccc(F)cc4n23)c1` [Example 60, 8-Fluoro-1-(2-fluoro-5-hexyloxy-phenyl)-4-methyl-[1,2,4]triazolo[4,3-a]quinoxaline], the IC50 was over 1000 nM.
For `COc1ccccc1-c1nnc2c(C)nc3ccc(C(F)(F)F)cc3n12` [Example 63, 1-(2-Methoxy-phenyl)-4-methyl-8-trifluoromethyl-[1,2,4]triazolo[4,3-a]quinoxaline], the IC50 was 265 nM.
With `Cc1nc2ccc(C(F)(F)F)cc2n2c(-c3cccc(Cl)c3Cl)nnc12` [Example 64, 1-(2,3-Dichloro-phenyl)-4-methyl-8-trifluoromethyl-[1,2,4]triazolo[4,3-a]quinoxaline] the IC50 was 337 nM.
With `Cc1nc2ccc(C(F)(F)F)cc2n2c(-c3cc(C(F)(F)F)ccc3Cl)nnc12` [Example 65, 1-(2-Chloro-5-trifluoromethyl-phenyl)-4-methyl-8-trifluoromethyl-[1,2,4]triazolo[4,3-a]quinoxaline] the IC50 was over 1000 nM.
For `Cc1nc2ccc(C(F)(F)F)cc2n2c(-c3ccccc3F)nnc12` [Example 66, 1-(2-Fluorophenyl)-4-methyl-8-trifluoromethyl-[1,2,4]triazolo[4,3-a]quinoxaline], the IC50 was 471 nM.
`CCCCOc1ccc(F)c(-c2nnc3c(C)nc4ccc(C(F)(F)F)cc4n23)c1` [Example 67, 1-(5-Butoxy-2-fluoro-phenyl)-4-methyl-8-trifluoromethyl-[1,2,4]triazolo[4,3-a]quinoxaline] was tested, and the IC50 was over 1000 nM.
`CCCCCCOc1ccc(F)c(-c2nnc3c(C)nc4ccc(C(F)(F)F)cc4n23)c1` [Example 68, 1-(2-Fluoro-5-hexyloxy-phenyl)-4-methyl-8-trifluoromethyl-[1,2,4]triazolo[4,3-a]quinoxaline] was tested, and the IC50 was over 1000 nM.
In the case of `COc1ccc2c(c1)nc(C)c1nnc(-c3ccccc3F)n12` [Example 73, 1-(2-Fluoro-phenyl)-7-methoxy-4-methyl-[1,2,4]triazolo[4,3-a]quinoxaline], the IC50 is reported as 223 nM.
`COc1ccc2c(c1)nc(C)c1nnc(-c3ccccc3Cl)n12` [Example 74, 1-(2-Chloro-phenyl)-7-methoxy-4-methyl-[1,2,4]triazolo[4,3-a]quinoxaline] showed an IC50 of 68 nM.
Work on `Cc1nc2cc(O)ccc2n2c(-c3ccccc3Cl)nnc12` [Example 76, 1-(2-Chloro-phenyl)-4-methyl-[1,2,4]triazolo[4,3-a]quinoxalin-7-ol] yielded an IC50 of 274 nM.
`COc1ccc(CCOc2ccc3c(c2)nc(C)c2nnc(-c4ccccc4Cl)n23)cc1OC` [Example 78, 1-(2-Chloro-phenyl)-7-[2-(3,4-dimethoxy-phenyl)-ethoxy]-4-methyl-[1,2,4]triazolo[4,3-a]quinoxaline] showed an IC50 of 48 nM.
